Assay results published in the supplement of paper PMC13380429.
Counter-ions that a name gives are not always drawn.

Experiments:
Conditions in all cases: 72 h
Caco-2 [1] = experiment: cell viability relative to DMSO; higher = less toxic
Calu-3 [2] = experiment: as above
HepG2 [3] = experiment: as above
U2OS [4] = experiment: as above
Vero E6 [5] = experiment: as above
Caco-2 [6] = experiment: relative viability EC50 (midpoint between 100% and the lowest measured viability); higher = less toxic
Calu-3 [7] = experiment: as above
HepG2 [8] = experiment: as above
U2OS [9] = experiment: as above
Vero E6 [10] = experiment: as above
Caco-2 [11] = experiment: drug sensitivity score (DSS) for viability; higher = more toxic; extreme values may be limits of the assay
Calu-3 [12] = experiment: as above
HepG2 [13] = experiment: as above
U2OS [14] = experiment: as above
Vero E6 [15] = experiment: as above

CC(C)(C)c1cc(O)c(C(C)(C)C)cc1O [BHQ]
cell viability (Caco-2 [1]; 1 nM): 101% | cell viability (Caco-2 [1]; 10 nM): 96.9% | cell viability (Caco-2 [1]; 100 nM): 102% | cell viability (Caco-2 [1]; 1000 nM): 95.7% | cell viability (Caco-2 [1]; 10000 nM): 88.9% | cell viability (Calu-3 [2]; 1 nM): 109% | cell viability (Calu-3 [2]; 10 nM): 94% | cell viability (Calu-3 [2]; 100 nM): 93.1% | cell viability (Calu-3 [2]; 1000 nM): 97.9% | cell viability (Calu-3 [2]; 10000 nM): 108% | cell viability (HepG2 [3]; 1 nM): 102% | cell viability (HepG2 [3]; 10 nM): 95.8% | cell viability (HepG2 [3]; 100 nM): 92.4% | cell viability (HepG2 [3]; 1000 nM): 97.9% | cell viability (HepG2 [3]; 10000 nM): 95.5% | cell viability (U2OS [4]; 1 nM): 101% | cell viability (U2OS [4]; 10 nM): 97.2% | cell viability (U2OS [4]; 100 nM): 103% | cell viability (U2OS [4]; 1000 nM): 99.1% | cell viability (U2OS [4]; 10000 nM): 99.8% | cell viability (Vero E6 [5]; 1 nM): 98.3% | cell viability (Vero E6 [5]; 10 nM): 96% | cell viability (Vero E6 [5]; 100 nM): 103% | cell viability (Vero E6 [5]; 1000 nM): 96.6% | cell viability (Vero E6 [5]; 10000 nM): 91.8% | relative viability EC50 (Caco-2 [6]): > 10 µM | relative viability EC50 (Calu-3 [7]): > 10 µM | relative viability EC50 (HepG2 [8]): > 10 µM | relative viability EC50 (U2OS [9]): > 10 µM | relative viability EC50 (Vero E6 [10]): > 10 µM | drug sensitivity score (Caco-2 [11]): 0.1 | drug sensitivity score (Calu-3 [12]): 0 | drug sensitivity score (HepG2 [13]): 0 | drug sensitivity score (U2OS [14]): 0 | drug sensitivity score (Vero E6 [15]): 0

C[C@H](NC(=O)/C(C#N)=C/c1cccc(Br)n1)c1ccccc1 [WP1066]
cell viability (Caco-2 [1]; 1 nM): 95.8% | cell viability (Caco-2 [1]; 10 nM): 96.7% | cell viability (Caco-2 [1]; 100 nM): 96.4% | cell viability (Caco-2 [1]; 1000 nM): 104% | cell viability (Caco-2 [1]; 10000 nM): 20.1% | cell viability (Calu-3 [2]; 1 nM): 102% | cell viability (Calu-3 [2]; 10 nM): 93% | cell viability (Calu-3 [2]; 100 nM): 90.6% | cell viability (Calu-3 [2]; 1000 nM): 103% | cell viability (Calu-3 [2]; 10000 nM): 75.4% | cell viability (HepG2 [3]; 1 nM): 100% | cell viability (HepG2 [3]; 10 nM): 101% | cell viability (HepG2 [3]; 100 nM): 105% | cell viability (HepG2 [3]; 1000 nM): 94.2% | cell viability (HepG2 [3]; 10000 nM): 10.3% | cell viability (U2OS [4]; 1 nM): 102% | cell viability (U2OS [4]; 10 nM): 99.2% | cell viability (U2OS [4]; 100 nM): 105% | cell viability (U2OS [4]; 1000 nM): 98.5% | cell viability (U2OS [4]; 10000 nM): 0.7% | cell viability (Vero E6 [5]; 1 nM): 97.3% | cell viability (Vero E6 [5]; 10 nM): 96.8% | cell viability (Vero E6 [5]; 100 nM): 98.3% | cell viability (Vero E6 [5]; 1000 nM): 97.6% | cell viability (Vero E6 [5]; 10000 nM): 15.9% | relative viability EC50 (Caco-2 [6]): 3.45 µM | relative viability EC50 (Calu-3 [7]): > 10 µM | relative viability EC50 (HepG2 [8]): 2.66 µM | relative viability EC50 (U2OS [9]): 3.06 µM | relative viability EC50 (Vero E6 [10]): 2.96 µM | drug sensitivity score (Caco-2 [11]): 4.1 | drug sensitivity score (Calu-3 [12]): 0.8 | drug sensitivity score (HepG2 [13]): 5.8 | drug sensitivity score (U2OS [14]): 5.7 | drug sensitivity score (Vero E6 [15]): 5

NCC[C@H](O)C(=O)N[C@@H]1C[C@H](N)[C@@H](O[C@H]2O[C@H](CN)[C@@H](O)[C@H](O)[C@H]2O)[C@H](O)[C@H]1O[C@H]1O[C@H](CO)[C@@H](O)[C@H](N)[C@H]1O [amikacin]
cell viability (Caco-2 [1]; 1 nM): 95.7% | cell viability (Caco-2 [1]; 10 nM): 103% | cell viability (Caco-2 [1]; 100 nM): 99.5% | cell viability (Caco-2 [1]; 1000 nM): 104% | cell viability (Caco-2 [1]; 10000 nM): 104% | cell viability (Calu-3 [2]; 1 nM): 100% | cell viability (Calu-3 [2]; 10 nM): 99.7% | cell viability (Calu-3 [2]; 100 nM): 94.9% | cell viability (Calu-3 [2]; 1000 nM): 105% | cell viability (Calu-3 [2]; 10000 nM): 91.5% | cell viability (HepG2 [3]; 1 nM): 101% | cell viability (HepG2 [3]; 10 nM): 104% | cell viability (HepG2 [3]; 100 nM): 96.6% | cell viability (HepG2 [3]; 1000 nM): 92.6% | cell viability (HepG2 [3]; 10000 nM): 113% | cell viability (U2OS [4]; 1 nM): 97.5% | cell viability (U2OS [4]; 10 nM): 98.3% | cell viability (U2OS [4]; 100 nM): 98.9% | cell viability (U2OS [4]; 1000 nM): 103% | cell viability (U2OS [4]; 10000 nM): 97.9% | cell viability (Vero E6 [5]; 1 nM): 94.8% | cell viability (Vero E6 [5]; 10 nM): 98.5% | cell viability (Vero E6 [5]; 100 nM): 96.9% | cell viability (Vero E6 [5]; 1000 nM): 94.5% | cell viability (Vero E6 [5]; 10000 nM): 103% | relative viability EC50 (Caco-2 [6]): > 10 µM | relative viability EC50 (Calu-3 [7]): > 10 µM | relative viability EC50 (HepG2 [8]): > 10 µM | relative viability EC50 (U2OS [9]): > 10 µM | relative viability EC50 (Vero E6 [10]): > 10 µM | drug sensitivity score (Caco-2 [11]): 0 | drug sensitivity score (Calu-3 [12]): 0 | drug sensitivity score (HepG2 [13]): 0 | drug sensitivity score (U2OS [14]): 0 | drug sensitivity score (Vero E6 [15]): 0

O=S(=O)(O)c1ccc(O)cc1 [4-phenolsulfonic-acid]
cell viability (Caco-2 [1]; 1 nM): 102% | cell viability (Caco-2 [1]; 10 nM): 101% | cell viability (Caco-2 [1]; 100 nM): 98.4% | cell viability (Caco-2 [1]; 1000 nM): 103% | cell viability (Caco-2 [1]; 10000 nM): 98.4% | cell viability (Calu-3 [2]; 1 nM): 102% | cell viability (Calu-3 [2]; 10 nM): 103% | cell viability (Calu-3 [2]; 100 nM): 104% | cell viability (Calu-3 [2]; 1000 nM): 95.1% | cell viability (Calu-3 [2]; 10000 nM): 97.1% | cell viability (HepG2 [3]; 1 nM): 104% | cell viability (HepG2 [3]; 10 nM): 92.3% | cell viability (HepG2 [3]; 100 nM): 116% | cell viability (HepG2 [3]; 1000 nM): 105% | cell viability (HepG2 [3]; 10000 nM): 97.8% | cell viability (U2OS [4]; 1 nM): 100% | cell viability (U2OS [4]; 10 nM): 104% | cell viability (U2OS [4]; 100 nM): 97% | cell viability (U2OS [4]; 1000 nM): 97.6% | cell viability (U2OS [4]; 10000 nM): 101% | cell viability (Vero E6 [5]; 1 nM): 100% | cell viability (Vero E6 [5]; 10 nM): 95.7% | cell viability (Vero E6 [5]; 100 nM): 92.6% | cell viability (Vero E6 [5]; 1000 nM): 100% | cell viability (Vero E6 [5]; 10000 nM): 94.5% | relative viability EC50 (Caco-2 [6]): > 10 µM | relative viability EC50 (Calu-3 [7]): > 10 µM | relative viability EC50 (HepG2 [8]): > 10 µM | relative viability EC50 (U2OS [9]): > 10 µM | relative viability EC50 (Vero E6 [10]): > 10 µM | drug sensitivity score (Caco-2 [11]): 0 | drug sensitivity score (Calu-3 [12]): 0 | drug sensitivity score (HepG2 [13]): 0 | drug sensitivity score (U2OS [14]): 0 | drug sensitivity score (Vero E6 [15]): 0

N#CC(c1ccc(Cl)cc1)c1c(Cl)cc(-n2ncc(=O)[nH]c2=O)cc1Cl (stereo not given) [diclazuril]
cell viability (Caco-2 [1]; 1 nM): 100% | cell viability (Caco-2 [1]; 10 nM): 93.7% | cell viability (Caco-2 [1]; 100 nM): 107% | cell viability (Caco-2 [1]; 1000 nM): 86.3% | cell viability (Caco-2 [1]; 10000 nM): 110% | cell viability (Calu-3 [2]; 1 nM): 98% | cell viability (Calu-3 [2]; 10 nM): 84.7% | cell viability (Calu-3 [2]; 100 nM): 94.2% | cell viability (Calu-3 [2]; 1000 nM): 92.9% | cell viability (Calu-3 [2]; 10000 nM): 107% | cell viability (HepG2 [3]; 1 nM): 101% | cell viability (HepG2 [3]; 10 nM): 102% | cell viability (HepG2 [3]; 100 nM): 121% | cell viability (HepG2 [3]; 1000 nM): 110% | cell viability (HepG2 [3]; 10000 nM): 91% | cell viability (U2OS [4]; 1 nM): 98.6% | cell viability (U2OS [4]; 10 nM): 98.5% | cell viability (U2OS [4]; 100 nM): 95.7% | cell viability (U2OS [4]; 1000 nM): 94.8% | cell viability (U2OS [4]; 10000 nM): 100% | cell viability (Vero E6 [5]; 1 nM): 99.4% | cell viability (Vero E6 [5]; 10 nM): 100% | cell viability (Vero E6 [5]; 100 nM): 92.2% | cell viability (Vero E6 [5]; 1000 nM): 95.8% | cell viability (Vero E6 [5]; 10000 nM): 109% | relative viability EC50 (Caco-2 [6]): > 10 µM | relative viability EC50 (Calu-3 [7]): > 10 µM | relative viability EC50 (HepG2 [8]): > 10 µM | relative viability EC50 (U2OS [9]): > 10 µM | relative viability EC50 (Vero E6 [10]): > 10 µM | drug sensitivity score (Caco-2 [11]): 0 | drug sensitivity score (Calu-3 [12]): 0 | drug sensitivity score (HepG2 [13]): 0 | drug sensitivity score (U2OS [14]): 0 | drug sensitivity score (Vero E6 [15]): 0

CC[C@@H](c1cccc(O)c1)[C@@H](C)CN(C)C [Tapentadol (hydrochloride)]
cell viability (Caco-2 [1]; 1 nM): 93.5% | cell viability (Caco-2 [1]; 10 nM): 99.6% | cell viability (Caco-2 [1]; 100 nM): 96.3% | cell viability (Caco-2 [1]; 1000 nM): 91.7% | cell viability (Caco-2 [1]; 10000 nM): 107% | cell viability (Calu-3 [2]; 1 nM): 89% | cell viability (Calu-3 [2]; 10 nM): 80.2% | cell viability (Calu-3 [2]; 100 nM): 102% | cell viability (Calu-3 [2]; 1000 nM): 90.9% | cell viability (Calu-3 [2]; 10000 nM): 92.5% | cell viability (HepG2 [3]; 1 nM): 97% | cell viability (HepG2 [3]; 10 nM): 90.6% | cell viability (HepG2 [3]; 100 nM): 95.2% | cell viability (HepG2 [3]; 1000 nM): 101% | cell viability (HepG2 [3]; 10000 nM): 99.9% | cell viability (U2OS [4]; 1 nM): 97% | cell viability (U2OS [4]; 10 nM): 99.7% | cell viability (U2OS [4]; 100 nM): 102% | cell viability (U2OS [4]; 1000 nM): 93.9% | cell viability (U2OS [4]; 10000 nM): 97.8% | cell viability (Vero E6 [5]; 1 nM): 103% | cell viability (Vero E6 [5]; 10 nM): 108% | cell viability (Vero E6 [5]; 100 nM): 97.3% | cell viability (Vero E6 [5]; 1000 nM): 97.1% | cell viability (Vero E6 [5]; 10000 nM): 96.3% | relative viability EC50 (Caco-2 [6]): > 10 µM | relative viability EC50 (Calu-3 [7]): > 10 µM | relative viability EC50 (HepG2 [8]): > 10 µM | relative viability EC50 (U2OS [9]): > 10 µM | relative viability EC50 (Vero E6 [10]): > 10 µM | drug sensitivity score (Caco-2 [11]): 0 | drug sensitivity score (Calu-3 [12]): 0.1 | drug sensitivity score (HepG2 [13]): 0 | drug sensitivity score (U2OS [14]): 0 | drug sensitivity score (Vero E6 [15]): 0
